Source: patent US20240246964A1 (Arbutus Biopharma Corporation, priority 2021, published 2024)

These compounds were tested against human PD-L1 (Homo sapiens (Human), UniProt Q9NZQ7) (assay: T cell activation luciferase reporter cell culture system (T Cell Activation Assay)). Details: luciferase reporter assay; PD-L1 aAPC/CHO-K1 cells with PD-1 effector Jurkat T cells.
Format: cell-based

human PD-L1, sequence (Q9NZQ7 19-290): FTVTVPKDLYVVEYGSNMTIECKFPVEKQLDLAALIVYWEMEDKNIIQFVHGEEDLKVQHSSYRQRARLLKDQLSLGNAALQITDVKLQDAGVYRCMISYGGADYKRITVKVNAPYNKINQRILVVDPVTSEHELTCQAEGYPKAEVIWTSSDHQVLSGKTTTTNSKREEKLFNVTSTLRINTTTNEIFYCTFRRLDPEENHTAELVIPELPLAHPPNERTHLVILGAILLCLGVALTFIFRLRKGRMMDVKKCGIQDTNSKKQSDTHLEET

| Structure (SMILES) | EC50 [nM] |
| --- | --- |
| COc1cc(-c2nccc(-c3cccc(-c4ccc(CNC5CCN(C(C)=O)CC5)c(OC)n4)c3Cl)c2Cl)ccc1CNCCCF [Example 537, 1-(4-(((6-(2-Chloro-3-(3-chloro-2-(4-(((3-fluoropropyl)amino)methyl)-3-methoxyphenyl)pyridin-4-yl)phenyl)-2-methoxypyridin-3-yl)methyl)amino)piperidin-1-yl)ethan-1-one] | 41.6 |
| COc1cc(-c2nccc(-c3cccc(-c4ccc(CN[C@H]5CC[C@H](O)CC5)c(OC)n4)c3Cl)c2C)ccc1CN[C@H]1CC[C@H](O)CC1 [Example 463, (1r,4r)-4-(((6-(2-Chloro-3-(2-(4-((((1r,4r)-4-hydroxycyclohexyl)amino)methyl)-3-methoxyphenyl)-3-methylpyridin-4-yl)phenyl)-2-methoxypyridin-3-yl)methyl)amino)cyclohexan-1-ol] | 288 |
| COc1cc(-c2nccc(-c3cccc(-c4ccc(CNC5CCN(C(=O)C6CC6)CC5)c(OC)n4)c3Cl)c2Cl)ccc1CNC1CCN(C(=O)C2CC2)CC1 [Example 345, (4-(((6-(2-Chloro-3-(3-chloro-2-(4-(((1-(cyclopropanecarbonyl)piperidin-4-yl)amino)methyl)-3-methoxyphenyl)pyridin-4-yl)phenyl)-2-methoxypyridin-3-yl)methyl)amino)piperidin-1-yl)(cyclopropyl)methanone] | 32.3 |
| COc1cc(-c2nccc(-c3cccc(-c4ccc(CNC[C@@H]5CCC(=O)N5)c(OC)n4)c3Cl)c2Cl)ccc1[C@H](C)N [Example 335, (S)-5-((((6-(3-(2-(4-((S)-1-Aminoethyl)-3-methoxyphenyl)-3-chloropyridin-4-yl)-2-chlorophenyl)-2-methoxypyridin-3-yl)methyl)amino)methyl)pyrrolidin-2-one] | 49.8 |
| COc1cc(-c2nccc(-c3cccc(-c4ccc(CNC[C@@H]5CCC(=O)N5)c(OC)n4)c3Cl)c2Cl)ccc1CNCC(=O)O [Cmpd 107, (S)-(4-(3-chloro-4-(2-chloro-3-(6-methoxy-5-((((5-oxopyrrolidin-2-yl)methyl)amino)methyl)pyridin-2-yl)phenyl)pyridin-2-yl)-2-methoxybenzyl)glycine] | 253 |
| COc1cc(-c2nccc(-c3cccc(-c4ccc(CN5CC6(CCC(=O)N6)C5)c(OC)n4)c3Cl)c2Cl)ccc1CN1CCC(NC(C)=O)CC1 [Example 401, N-(1-(4-(3-Chloro-4-(2-chloro-3-(6-methoxy-5-((6-oxo-2,5-diazaspiro[3.4]-octan-2-yl)methyl)pyridin-2-yl)phenyl)pyridin-2-yl)-2-methoxybenzyl)piperidin-4-yl)acetamide] | 20.6 |
| COc1cc(-c2nccc(-c3cccc(-c4ccc(CN5CC6(CNC(=O)C6)C5)c(OC)n4)c3Cl)c2F)ccc1CN1CC2(CNC(=O)C2)C1 [Example 324, 2-(4-(4-(2-chloro-3-(6-methoxy-5-((7-oxo-2,6-diazaspiro[3.4]octan-2-yl)methyl)pyridin-2-yl)phenyl)-3-fluoropyridin-2-yl)-2-methoxybenzyl)-2,6-diazaspiro[3.4]octan-7-one] | 31.4 |
| COc1cc(-c2nccc(-c3cccc(NC(=O)c4ccc(CNC5CC6(COC6)C5)cn4)c3Cl)c2Cl)ccc1CNC1CC2(COC2)C1 (stereo not shown) [Example 695, 5-(((2-Oxaspiro[3.3]heptan-6-yl)amino)methyl)-N-(3-(2-(4-(((2-oxaspiro[3.3]heptan-6-yl)amino)methyl)-3-methoxyphenyl)-3-chloropyridin-4-yl)-2-chlorophenyl)picolinamide] | 169 |
| COc1cc(-c2nccc(-c3cccc(-c4ccc(CNC[C@@H]5CCC(=O)N5)c(OC)n4)c3Cl)c2Cl)cc2c1CN(CCCF)CC2 [Cmpd 63, (S)-5-((((6-(2-chloro-3-(3-chloro-2-(2-(3-fluoropropyl)-8-methoxy-1,2,3,4-tetrahydroisoquinolin-6-yl)pyridin-4-yl)phenyl)-2-methoxypyridin-3-yl)methyl)amino)methyl)pyrrolidin-2-one] | 40.8 |
| COc1nc(-c2cccc(-c3ccnc(-c4cnn(C5CNC5)c4)c3Cl)c2Cl)ccc1CNC[C@@H]1CCC(=O)N1 [Cmpd 119, (S)-5-((((6-(3-(2-(1-(azetidin-3-yl)-1H-pyrazol-4-yl)-3-chloropyridin-4-yl)-2-chlorophenyl)-2-methoxypyridin-3-yl)methyl)amino)methyl)pyrrolidin-2-one] | 370 |
| COc1cc(-c2nccc(-c3cccc(-c4ccc(CNC[C@@H]5CCC(=O)N5)c(OC)n4)c3Cl)c2Cl)cc2c1CN(CCC1(O)CCC1)CC2 [Cmpd 51, (S)-5-((((6-(2-chloro-3-(3-chloro-2-(2-(2-(1-hydroxycyclobutyl)ethyl)-8-methoxy-1,2,3,4-tetrahydroisoquinolin-6-yl)pyridin-4-yl)phenyl)-2-methoxypyridin-3-yl)methyl)amino)methyl)pyrrolidin-2-one] | 74.5 |
| CNCc1ccc(-c2nccc(-c3cccc4c3CCC[C@@H]4Nc3nc(OC)c(CNC)cc3C(F)(F)F)c2Cl)cc1OC [Example 741, (S)—N-(5-(3-Chloro-2-(3-methoxy-4-((methylamino)methyl)phenyl)pyridin-4-yl)-1,2,3,4-tetrahydronaphthalen-1-yl)-6-methoxy-5-((methylamino)methyl)-3-(trifluoromethyl)pyridin-2-amine] | ≥ 10000 |
| COc1nc(-c2cccc(-c3ccnc(-c4ccc5c(c4)S(=O)(=O)CCN(C[C@H](C)O)C5)c3Cl)c2Cl)ccc1CNC[C@@H]1CCC(=O)N1 [Example 611, (S)-5-((((6-(2-Chloro-3-(3-chloro-2-(4-((S)-2-hydroxypropyl)-1,1-dioxido-2,3,4,5-tetrahydrobenzo[f][1,4]thiazepin-8-yl)pyridin-4-yl)phenyl)-2-methoxypyridin-3-yl)methyl)amino)methyl)pyrrolidin-2-one] | ≥ 10000 |
| COc1nc(-c2cccc(-c3ccnc(-c4ccc(CNC5CCN(C(C)=O)CC5)c(OC(F)F)c4)c3Cl)c2Cl)ccc1CN1CC2(C1)CN(C(C)=O)C2 [Example 690, 1-(4-((4-(4-(3-(5-((6-Acetyl-2,6-diazaspiro[3.3]heptan-2-yl)methyl)-6-methoxypyridin-2-yl)-2-chlorophenyl)-3-chloropyridin-2-yl)-2-(difluoromethoxy)benzyl)amino)piperidin-1-yl)ethan-1-one] | 42.2 |
| COc1nc(-c2cccc(-c3ccnc(-c4ccc5c(c4)N(C)CCN(C[C@@H]4CCC(=O)N4)C5)c3Cl)c2Cl)ccc1CNC[C@@H]1CCC(=O)N1 [Cmpd 19, (S)-5-((((6-(2-chloro-3-(3-chloro-2-(1-methyl-4-(((S)-5-oxopyrrolidin-2-yl)methyl)-2,3,4,5-tetrahydro-1H-benzo[e][1,4]diazepin-8-yl)pyridin-4-yl)phenyl)-2-methoxypyridin-3-yl)methyl)amino)methyl)pyrrolidin-2-one] | 61.4 |
| COc1cc(-c2nccc(-c3cccc4c3CCC[C@@H]4Nc3nc(OC)c(CNC[C@@H]4CCC(=O)N4)cc3C(F)(F)F)c2Cl)ccc1CNC[C@@H]1CCC(=O)N1 [Example 710, (S)-5-((((6-(((S)-5-(3-Chloro-2-(3-methoxy-4-(((((S)-5-oxopyrrolidin-2-yl)methyl)amino)methyl)phenyl)pyridin-4-yl)-1,2,3,4-tetrahydronaphthalen-1-yl)amino)-2-methoxy-5-(trifluoromethyl)pyridin-3-yl)methyl)amino)methyl)pyrrolidin-2-one] | ≥ 10000 |
